Measured values as given in ChEMBL document CHEMBL6182909 (J Med Chem, 2025).

Key:
Rattus norvegicus [1] = assay: Hypophagic effect in fasted male Sprague-Dawley rat assessed as inhibition of food intake at 10 mg/kg, po measured after 1 hr relative to control; format: functional; conditions: for inhibition (INH): 10 mg/kg; for inhibition in vivo at 10 mg/kg: Rattus norvegicus, Sprague-Dawley, po
[2] = target: T1, 5-hydroxytryptamine receptor 2B (Homo sapiens, UniProt P41595); assay: Displacement of [125I]-DOI from 5-HT2B receptor (unknown origin) expressed in HEK293 cell membrane assessed as inhibition constant incubated for 1 hr by scintillation counter analysis; format: cell membranes
[3] = target: T2, 5-hydroxytryptamine receptor 2A (Homo sapiens, UniProt P28223); assay: Displacement of [125I]-DOI from 5-HT2A receptor (unknown origin) expressed in HEK293 cell membrane assessed as inhibition constant incubated for 1 hr by scintillation counter analysis; format: cell membranes
[4] = target: T3, 5-hydroxytryptamine receptor 2C (Homo sapiens, UniProt P28335)
T3 sequence (P28335 whole entry): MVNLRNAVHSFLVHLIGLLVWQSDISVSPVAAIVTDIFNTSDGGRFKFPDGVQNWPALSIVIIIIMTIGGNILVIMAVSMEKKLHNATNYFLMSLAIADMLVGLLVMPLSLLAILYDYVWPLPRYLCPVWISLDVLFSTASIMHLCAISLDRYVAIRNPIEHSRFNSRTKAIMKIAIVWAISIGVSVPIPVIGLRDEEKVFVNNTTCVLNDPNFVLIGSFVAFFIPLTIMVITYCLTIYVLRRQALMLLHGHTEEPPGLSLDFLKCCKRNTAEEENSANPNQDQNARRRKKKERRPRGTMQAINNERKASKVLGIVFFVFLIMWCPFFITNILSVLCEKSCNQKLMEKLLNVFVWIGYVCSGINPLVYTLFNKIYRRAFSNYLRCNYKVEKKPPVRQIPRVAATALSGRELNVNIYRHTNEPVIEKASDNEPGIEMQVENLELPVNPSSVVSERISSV

[5] = target: T3, 5-hydroxytryptamine receptor 2C; remark: listed apart in the source
[6] = Drug concentration in plasma of fasted male Sprague-Dawley rat assessed as inhibition of food intake at 10 mg/kg, po measured after 1 hr relative to control; format: organism-based
[7] = Drug concentration in brain of fasted male Sprague-Dawley rat assessed as inhibition of food intake at 10 mg/kg, po measured after 1 hr relative to control; format: organism-based; conditions: read-out: Ct
Rattus norvegicus [8] = assay: Hypophagic effect in fasted male Sprague-Dawley rat assessed as effective dose administered orally measured after 1 hr relative to control; format: functional; conditions: route po
[9] = target: T1, 5-hydroxytryptamine receptor 2B; assay: Displacement of [125I]-DOI from 5-HT2B receptor (unknown origin) expressed in HEK293 cell membrane incubated for 1 hr by scintillation counter analysis; format: cell membranes
[10] = target: T2, 5-hydroxytryptamine receptor 2A; assay: Displacement of [125I]-DOI from 5-HT2A receptor (unknown origin) expressed in HEK293 cell membrane incubated for 1 hr by scintillation counter analysis; format: cell membranes
Rattus norvegicus [11] = assay: Hypophagic effect in fasted male Sprague-Dawley rat assessed as inhibition of food intake at 5 mg/kg, po measured after 1 hr relative to control; format: functional
Rattus norvegicus [12] = organism: Rattus norvegicus; assay: animal or person; conditions: Sprague-Dawley, po, 1 h, read-out: INH
Rattus norvegicus [13] = organism: Rattus norvegicus; assay: animal or person; conditions: Sprague-Dawley, 1 h, read-out: INH

T1 sequence (P41595 whole entry): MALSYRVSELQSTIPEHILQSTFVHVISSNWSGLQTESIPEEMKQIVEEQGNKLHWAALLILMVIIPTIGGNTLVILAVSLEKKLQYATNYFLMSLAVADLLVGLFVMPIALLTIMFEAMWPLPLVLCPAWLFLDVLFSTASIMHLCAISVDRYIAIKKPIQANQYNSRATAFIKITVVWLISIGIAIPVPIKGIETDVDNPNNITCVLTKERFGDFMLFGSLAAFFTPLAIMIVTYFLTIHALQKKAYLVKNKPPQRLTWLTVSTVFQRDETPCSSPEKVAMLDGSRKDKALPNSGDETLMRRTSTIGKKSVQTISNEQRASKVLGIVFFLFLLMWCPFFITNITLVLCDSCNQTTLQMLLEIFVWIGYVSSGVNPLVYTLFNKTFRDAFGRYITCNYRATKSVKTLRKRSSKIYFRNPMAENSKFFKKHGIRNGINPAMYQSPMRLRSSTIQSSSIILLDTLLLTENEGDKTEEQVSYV
T2 sequence (P28223 whole entry): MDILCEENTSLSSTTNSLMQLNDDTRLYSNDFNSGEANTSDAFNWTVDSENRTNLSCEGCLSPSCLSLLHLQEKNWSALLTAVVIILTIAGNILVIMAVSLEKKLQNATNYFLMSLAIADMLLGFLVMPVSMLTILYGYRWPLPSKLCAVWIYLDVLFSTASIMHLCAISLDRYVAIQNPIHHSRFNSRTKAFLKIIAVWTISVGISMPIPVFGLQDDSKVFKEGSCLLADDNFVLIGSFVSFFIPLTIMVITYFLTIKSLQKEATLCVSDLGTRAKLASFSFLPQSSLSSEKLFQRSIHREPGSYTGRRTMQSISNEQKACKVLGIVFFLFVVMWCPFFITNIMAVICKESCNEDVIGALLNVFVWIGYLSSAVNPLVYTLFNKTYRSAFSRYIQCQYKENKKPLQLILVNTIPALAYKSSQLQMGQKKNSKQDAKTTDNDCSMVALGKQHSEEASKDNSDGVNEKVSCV

Row | SMILES | Ki [2] [µM] | Ki [3] [µM] | EC50 [4] [µM] | Ki [5] [µM] | EC50 [9] [µM] | EC50 [10] [µM] | other results
1 | CNC(=O)c1ccc2c3c1C(CC(F)(F)F)CN3CCNC2 (single isomer, unassigned; (-)) |  |  |  |  |  |  | inhibition (INH) (Rattus norvegicus [1]): 0%
2 | CCC1CN2CCNCc3ccc(C(=O)NC)c1c32 (single isomer, unassigned; (+)) |  |  |  |  |  |  | inhibition (INH) (Rattus norvegicus [1]): 63%; concentration at 1 h [6]: 1010 ng/mL; concentration at 1 h [7]: 222 ng/g; ED50 (Rattus norvegicus [8]): 6.4 mg/kg
3 | CCC1CN2CCNCc3ccc(C(=O)NCCF)c1c32 (racemic) | > 50 | 0.212 | 0.08 | 0.121 |  |  | 
4 | CCSCCNC(=O)c1ccc2c3c1CCN3CCNC2 | > 50 | 17.8 | 0.015 | 0.029 | > 50 | > 50 | 
5 | CCC1CN2CCNCc3ccc(C(=O)NCC(F)F)c1c32 (single isomer, unassigned; (+)) |  |  |  |  |  |  | concentration at 1 h [6]: 866 ng/mL; concentration at 1 h [7]: 454 ng/g; inhibition in vivo at 5 mg/kg (Rattus norvegicus [11]): 27%; ED50 (Rattus norvegicus [8]): > 5 mg/kg
6 | CNC(=O)c1ccc2c3c1C(CC(F)(F)F)CN3CCNC2 (single isomer, unassigned; (+)) |  |  |  |  |  |  | inhibition (INH) (Rattus norvegicus [1]): 83%; concentration at 1 h [6]: 1660 ng/mL; concentration at 1 h [7]: 440 ng/g; inhibition in vivo at 5 mg/kg (Rattus norvegicus [11]): 41%; ED50 (Rattus norvegicus [8]): 5.2 mg/kg
7 | CC(C)OCCNC(=O)c1ccc2c3c1CCN3CCNC2 | > 50 | > 30 | 0.057 | 0.075 | > 50 | > 50 | 
8 | COC(C)CNC(=O)c1ccc2c3c1CCN3CCNC2 (stereo not given) | 7.73 | 0.83 | 0.82 | 0.348 | > 50 | > 50 | 
9 | CCCNC(=O)c1ccc2c3c1C(CC(F)(F)F)CN3CCNC2 (single isomer, unassigned; (+)) |  |  |  |  |  |  | inhibition in vivo at 10 mg/kg (Rattus norvegicus [1]): 53%
10 | NC(=O)c1ccc2c3c1CCN3CCNC2 |  |  | 2.7 | 0.5 | > 50 | > 50 | 
11 | COCCNC(=O)c1ccc2c3c1CCN3CCNC2 |  |  |  |  |  |  | inhibition in vivo at 10 mg/kg (Rattus norvegicus [1]): 9%; inhibition in vivo at 20 mg/kg (Rattus norvegicus [12]): 25%; inhibition in vivo at 10 mg/kg (Rattus norvegicus [13]): 7%
12 | O=C(NCC(F)F)c1ccc2c3c1C(CC(F)(F)F)CN3CCNC2 (racemic) | > 50 | 2.68 | 0.014 | 0.025 |  |  | 
13 | CCC1CN2CCNCc3ccc(C(=O)NC)c1c32 (single isomer, unassigned; (-)) |  |  |  |  |  |  | inhibition (INH) (Rattus norvegicus [1]): 0%
14 | O=C(NC1CC1)c1ccc2c3c1CCN3CCNC2 | 9.65 | 21.8 | 0.4 | 0.38 | > 50 | > 50 | 
15 | CNC(=O)c1ccc2c3c1CCCN3CCNC2 |  |  | 5.6 |  | > 50 | > 50 | 
16 | O=C(NCC(F)(F)F)c1ccc2c3c1C(CC(F)(F)F)CN3CCNC2 (racemic) | 5.15 | 7.33 | 0.178 | 0.091 |  |  | 
17 | O=C(NCC(F)F)c1ccc2c3c1CCN3CCNC2 |  |  | 0.4 |  | > 50 | > 50 | 
18 | COCC(C)NC(=O)c1ccc2c3c1CCN3CCNC2 (stereo not given) | > 50 | > 30 | 7.4 | 3.07 | > 50 | > 50 | 

Second part, led by results:

Row | Ki [2] [µM] | Ki [3] [µM] | EC50 [4] [µM] | Ki [5] [µM] | EC50 [9] [µM] | EC50 [10] [µM] | SMILES | other results
19 | 0.804 | 3.78 | 0.023 | 0.03 |  |  | CNC(=O)c1ccc2c3c1C(CC(F)F)CN3CCNC2 (racemic) | 
20 | 1.67 | 2.63 | 0.021 | 0.018 | > 50 | > 50 | O=C(NCCOc1ccccc1)c1ccc2c3c1CCN3CCNC2 | 
21 | 8.76 | > 30 | 3.92 | 1.15 | > 50 | > 50 | CC(C)NC(=O)c1ccc2c3c1CCN3CCNC2 | 
22 | > 50 | 0.217 | 0.017 | 0.038 |  |  | COCCNC(=O)c1ccc2c3c1C(CC(F)(F)F)CN3CCNC2 (racemic) | 
23 | > 50 | > 30 | > 50 | 12.6 | > 50 | > 50 | CS(=O)(=O)CCNC(=O)c1ccc2c3c1CCN3CCNC2 | 
24 | 8.16 | > 30 | 0.252 | 0.21 | > 50 | > 50 | CCNC(=O)c1ccc2c3c1CCN3CCNC2 | 
25 | > 50 | > 50 | 0.193 | 0.232 | > 50 | > 50 | CCOCCNC(=O)c1ccc2c3c1CCCN3CCNC2 | 
26 | 12.4 | 1.62 | 0.045 | 0.072 |  |  | CCNC(=O)c1ccc2c3c1C(CC(F)(F)F)CN3CCNC2 (racemic) | 
27 | 2.51 | 0.506 | 0.015 | 0.019 | > 50 | > 50 | CCCOCCNC(=O)c1ccc2c3c1CCN3CCNC2 | 
28 |  |  | 0.332 |  | > 50 | > 50 | COCCNC(=O)c1ccc2c3c1CCCN3CCNC2 | 
29 | 2.49 | 18.9 | 0.033 | 0.061 | > 50 | > 50 | O=C(NCCCl)c1ccc2c3c1CCN3CCNC2 | 
30 |  |  | > 30 |  | > 50 | > 50 | CN(C)C(=O)c1ccc2c3c1CCN3CCNC2 | 
31 | 17.8 | 17.8 | 0.36 | 0.32 | > 50 | > 50 | O=C(NCC1CC1)c1ccc2c3c1CCN3CCNC2 | 
32 | 11.8 | > 30 | 0.091 | 0.16 | > 50 | > 50 | CCCCNC(=O)c1ccc2c3c1CCN3CCNC2 | 
33 | > 50 | > 30 | 0.43 | 0.249 | > 50 | > 50 | O=C(NCCF)c1ccc2c3c1CCN3CCNC2 | 
34 |  |  | > 50 |  | > 50 | > 50 | O=C(NCC(F)(F)F)c1ccc2c3c1CCN3CCNC2 | 
35 | > 50 | > 30 | 0.059 | 0.084 | > 50 | > 50 | CSCCNC(=O)c1ccc2c3c1CCN3CCNC2 | 
36 | 15.5 | 6.07 | 0.033 | 0.043 | > 50 | > 50 | CCOCCNC(=O)c1ccc2c3c1CCN3CCNC2 | inhibition in vivo at 10 mg/kg (Rattus norvegicus [1]): 26%
